The data set in a line: activity coefficient (dimensionless); of the first substance listed, at infinite dilution; xn = mol fraction of the nth substance listed. The following applies: 101 kPa, Liquid, Chromatography, x1 = 0.

Structures are written as SMILES. ± gives the expanded uncertainty stated by the source.

For `C1CCOC1` [tetrahydrofuran] + CCCC[n+]1cccc(C)c1.O=S(=O)([O-])C(F)(F)F, the activity coefficient reads like this: (308.15 K) 1.19 ± 0.08; (318.15 K) 1.2 ± 0.08; (328.15 K) 1.21 ± 0.08; (338.15 K) 1.23 ± 0.08; (348.15 K) 1.24 ± 0.08; (358.15 K) 1.25 ± 0.08.

As for `CCCCCCCCCC` [decane] + CCCC[n+]1cccc(C)c1.O=S(=O)([O-])C(F)(F)F, the activity coefficient stood at 104 ± 7.2 (308.15 K); 94.9 ± 6.5 (318.15 K); 87.6 ± 6 (328.15 K); 80.2 ± 5.5 (338.15 K); 74.6 ± 5.1 (348.15 K); 69.5 ± 4.8 (358.15 K).

As to `CCCCO` [butan-1-ol] + CCCC[n+]1cccc(C)c1.O=S(=O)([O-])C(F)(F)F, the activity coefficient reads like this: (318.15 K) 1.42 ± 0.09; (328.15 K) 1.34 ± 0.09; (338.15 K) 1.26 ± 0.08; (348.15 K) 1.2 ± 0.08; (358.15 K) 1.15 ± 0.07.

As to `CCOCC` [diethyl ether] + CCCC[n+]1cccc(C)c1.O=S(=O)([O-])C(F)(F)F, the activity coefficient is, setting by setting: (308.15 K) 4.29 ± 0.29; (318.15 K) 4.24 ± 0.29; (328.15 K) 4.18 ± 0.28; (338.15 K) 4.14 ± 0.28; (348.15 K) 4.1 ± 0.28; (358.15 K) 4.07 ± 0.28.

For the compound `Cc1cccc(C)c1` [1,3-dimethylbenzene] + CCCC[n+]1cccc(C)c1.O=S(=O)([O-])C(F)(F)F, the activity coefficient (318.15 K) was 2.57 ± 0.17; the activity coefficient (328.15 K) came out at 2.62 ± 0.18; the activity coefficient (338.15 K) was determined as 2.67 ± 0.18; the activity coefficient (348.15 K) turned out to be 2.71 ± 0.18; the activity coefficient (358.15 K) amounted to 2.76 ± 0.19.

Regarding `c1ccccc1` [benzene] + CCCC[n+]1cccc(C)c1.O=S(=O)([O-])C(F)(F)F, the activity coefficient by setting is: (308.15 K) 1.2 ± 0.08; (318.15 K) 1.23 ± 0.08; (328.15 K) 1.25 ± 0.08; (338.15 K) 1.27 ± 0.08; (348.15 K) 1.29 ± 0.08; (358.15 K) 1.31 ± 0.09.

For the compound `C1CCCCC1` [cyclohexane] + CCCC[n+]1cccc(C)c1.O=S(=O)([O-])C(F)(F)F, the activity coefficient turned out to be 13.2 ± 0.9 (308.15 K); 12.4 ± 0.8 (318.15 K); 11.7 ± 0.8 (328.15 K); 11.1 ± 0.8 (338.15 K); 10.6 ± 0.7 (348.15 K); 10.1 ± 0.7 (358.15 K).

For the compound `CCCCC` [pentane] + CCCC[n+]1cccc(C)c1.O=S(=O)([O-])C(F)(F)F, the activity coefficient by setting is: (308.15 K) 18.5 ± 1.3; (318.15 K) 17.3 ± 1.2; (328.15 K) 16.4 ± 1.1; (338.15 K) 15.5 ± 1.1; (348.15 K) 14.8 ± 1; (358.15 K) 14.1 ± 1.

Consider `C#CCCCC` [1-hexyne] + CCCC[n+]1cccc(C)c1.O=S(=O)([O-])C(F)(F)F, for which the activity coefficient is, setting by setting: (308.15 K) 2.86 ± 0.19; (318.15 K) 2.94 ± 0.2; (328.15 K) 3.03 ± 0.21; (338.15 K) 3.11 ± 0.21; (348.15 K) 3.19 ± 0.22; (358.15 K) 3.27 ± 0.22.

For `C=CCCCCC` [1-heptene] + CCCC[n+]1cccc(C)c1.O=S(=O)([O-])C(F)(F)F, the activity coefficient runs as follows: (308.15 K) 17.1 ± 1.2; (318.15 K) 16.4 ± 1.1; (328.15 K) 15.9 ± 1.1; (338.15 K) 15.4 ± 1.1; (348.15 K) 15 ± 1; (358.15 K) 14.5 ± 1.

As for `C#CCCCCC` [1-heptyne] + CCCC[n+]1cccc(C)c1.O=S(=O)([O-])C(F)(F)F, the activity coefficient (308.15 K) is 4.09 ± 0.28; the activity coefficient (318.15 K) was 4.18 ± 0.28; the activity coefficient (328.15 K) came out at 4.28 ± 0.29; the activity coefficient (338.15 K) was 4.37 ± 0.3; the activity coefficient (348.15 K) is 4.46 ± 0.3; the activity coefficient (358.15 K) was 4.53 ± 0.31.

On to `Cc1ccc(C)cc1` [1,4-dimethylbenzene] + CCCC[n+]1cccc(C)c1.O=S(=O)([O-])C(F)(F)F, for which the activity coefficient (318.15 K) came out at 2.46 ± 0.17; the activity coefficient (328.15 K) was 2.52 ± 0.17; the activity coefficient (338.15 K) was 2.57 ± 0.17; the activity coefficient (348.15 K) is 2.62 ± 0.18; the activity coefficient (358.15 K) was found to be 2.68 ± 0.18.

`CCCC(C)=O` [pentan-2-one] + CCCC[n+]1cccc(C)c1.O=S(=O)([O-])C(F)(F)F: the activity coefficient by setting is: (318.15 K) 1.35 ± 0.09; (328.15 K) 1.36 ± 0.09; (338.15 K) 1.38 ± 0.09; (348.15 K) 1.39 ± 0.09; (358.15 K) 1.41 ± 0.09.

Take `Cc1ccccc1` [toluene] + CCCC[n+]1cccc(C)c1.O=S(=O)([O-])C(F)(F)F: the activity coefficient turned out to be 1.76 ± 0.12 (318.15 K); 1.79 ± 0.12 (328.15 K); 1.82 ± 0.12 (338.15 K); 1.85 ± 0.12 (348.15 K); 1.88 ± 0.13 (358.15 K).

With `CCc1ccccc1` [ethylbenzene] + CCCC[n+]1cccc(C)c1.O=S(=O)([O-])C(F)(F)F, the activity coefficient (318.15 K) came to 2.76 ± 0.19; the activity coefficient (328.15 K) was 2.78 ± 0.19; the activity coefficient (338.15 K) stood at 2.8 ± 0.19; the activity coefficient (348.15 K) is 2.81 ± 0.19; the activity coefficient (358.15 K) came out at 2.83 ± 0.19.

For `c1ccsc1` [thiophene] + CCCC[n+]1cccc(C)c1.O=S(=O)([O-])C(F)(F)F, the activity coefficient by setting is: (318.15 K) 0.898 ± 0.057; (328.15 K) 0.919 ± 0.058; (338.15 K) 0.937 ± 0.059; (348.15 K) 0.955 ± 0.06; (358.15 K) 0.972 ± 0.061.

As for `Cc1ccccc1C` [1,2-dimethylbenzene] + CCCC[n+]1cccc(C)c1.O=S(=O)([O-])C(F)(F)F, the activity coefficient by setting is: (318.15 K) 2.16 ± 0.15; (328.15 K) 2.2 ± 0.15; (338.15 K) 2.25 ± 0.15; (348.15 K) 2.29 ± 0.16; (358.15 K) 2.33 ± 0.16.

Regarding `CCCO` [propan-1-ol] + CCCC[n+]1cccc(C)c1.O=S(=O)([O-])C(F)(F)F, the activity coefficient (318.15 K) was found to be 1.11 ± 0.07; the activity coefficient (328.15 K) is 1.06 ± 0.07; the activity coefficient (338.15 K) was 1 ± 0.06; the activity coefficient (348.15 K) turned out to be 0.958 ± 0.06; the activity coefficient (358.15 K) came out at 0.919 ± 0.058.

For the compound `C#CCCCCCC` [1-octyne] + CCCC[n+]1cccc(C)c1.O=S(=O)([O-])C(F)(F)F, the activity coefficient (318.15 K) turned out to be 5.88 ± 0.4; the activity coefficient (328.15 K) came out at 5.97 ± 0.41; the activity coefficient (338.15 K) worked out at 6.05 ± 0.41; the activity coefficient (348.15 K) is 6.14 ± 0.42; the activity coefficient (358.15 K) was 6.23 ± 0.42.

With `CCO` [ethanol] + CCCC[n+]1cccc(C)c1.O=S(=O)([O-])C(F)(F)F, the activity coefficient (318.15 K) was determined as 0.907 ± 0.058; the activity coefficient (328.15 K) came out at 0.867 ± 0.055; the activity coefficient (338.15 K) is 0.827 ± 0.053; the activity coefficient (348.15 K) was found to be 0.79 ± 0.051; the activity coefficient (358.15 K) turned out to be 0.759 ± 0.05.

Turning to `CO` [methanol] + CCCC[n+]1cccc(C)c1.O=S(=O)([O-])C(F)(F)F, the activity coefficient (318.15 K) came out at 0.642 ± 0.044; the activity coefficient (328.15 K) was found to be 0.617 ± 0.043; the activity coefficient (338.15 K) was 0.592 ± 0.042; the activity coefficient (348.15 K) was 0.57 ± 0.041; the activity coefficient (358.15 K) was determined as 0.551 ± 0.04.

Consider `CCCCCC` [hexane] + CCCC[n+]1cccc(C)c1.O=S(=O)([O-])C(F)(F)F, for which the activity coefficient was determined as 24.7 ± 1.7 (308.15 K); 23.2 ± 1.6 (318.15 K); 22.1 ± 1.5 (328.15 K); 20.9 ± 1.4 (338.15 K); 20 ± 1.4 (348.15 K); 19.1 ± 1.3 (358.15 K).

`O` [water] + CCCC[n+]1cccc(C)c1.O=S(=O)([O-])C(F)(F)F: the activity coefficient (318.15 K) came to 0.89 ± 0.057; the activity coefficient (328.15 K) amounted to 0.857 ± 0.055; the activity coefficient (338.15 K) is 0.82 ± 0.053; the activity coefficient (348.15 K) worked out at 0.789 ± 0.051; the activity coefficient (358.15 K) was determined as 0.765 ± 0.05.

For `C1CCCC1` [cyclopentane] + CCCC[n+]1cccc(C)c1.O=S(=O)([O-])C(F)(F)F, the activity coefficient by setting is: (308.15 K) 9.4 ± 0.64; (318.15 K) 8.89 ± 0.61; (328.15 K) 8.51 ± 0.58; (338.15 K) 8.15 ± 0.56; (348.15 K) 7.8 ± 0.53; (358.15 K) 7.54 ± 0.51.

In the case of `C1CCCCCCC1` [cyclooctane] + CCCC[n+]1cccc(C)c1.O=S(=O)([O-])C(F)(F)F, the activity coefficient (318.15 K) came to 19.8 ± 1.4; the activity coefficient (328.15 K) is 18.6 ± 1.3; the activity coefficient (338.15 K) amounted to 17.5 ± 1.2; the activity coefficient (348.15 K) was 16.5 ± 1.1; the activity coefficient (358.15 K) was found to be 15.7 ± 1.1.

Turning to `CCCCCCC` [heptane] + CCCC[n+]1cccc(C)c1.O=S(=O)([O-])C(F)(F)F, the activity coefficient amounted to 35.1 ± 2.4 (308.15 K); 32.7 ± 2.2 (318.15 K); 30.8 ± 2.1 (328.15 K); 29 ± 2 (338.15 K); 27.5 ± 1.9 (348.15 K); 26.1 ± 1.8 (358.15 K).

With `CC(C)=O` [acetone] + CCCC[n+]1cccc(C)c1.O=S(=O)([O-])C(F)(F)F, the activity coefficient is 0.743 ± 0.049 (308.15 K); 0.752 ± 0.049 (318.15 K); 0.762 ± 0.05 (328.15 K); 0.77 ± 0.05 (338.15 K); 0.776 ± 0.051 (348.15 K); 0.783 ± 0.051 (358.15 K).

For `COC(C)(C)C` [2-methoxy-2-methylpropane] + CCCC[n+]1cccc(C)c1.O=S(=O)([O-])C(F)(F)F, the activity coefficient (308.15 K) worked out at 4.21 ± 0.29; the activity coefficient (318.15 K) was 4.22 ± 0.29; the activity coefficient (328.15 K) was found to be 4.23 ± 0.29; the activity coefficient (338.15 K) was 4.23 ± 0.29; the activity coefficient (348.15 K) came out at 4.24 ± 0.29; the activity coefficient (358.15 K) worked out at 4.24 ± 0.29.

Regarding `CCC(=O)CC` [pentan-3-one] + CCCC[n+]1cccc(C)c1.O=S(=O)([O-])C(F)(F)F, the activity coefficient (318.15 K) was found to be 1.39 ± 0.09; the activity coefficient (328.15 K) was determined as 1.42 ± 0.09; the activity coefficient (338.15 K) was found to be 1.44 ± 0.09; the activity coefficient (348.15 K) worked out at 1.46 ± 0.1; the activity coefficient (358.15 K) turned out to be 1.48 ± 0.1.

The record behind these values is the NIST ThermoML archive (doi:10.1021/je1000582).
